Test results taken from patent US20180000085A1, “USE OF PICOLINAMIDE COMPOUNDS WITH FUNGICIDAL ACTIVITY” (DOW AGROSCIENCES LLC, priority 2014, published 2018).

What was measured:
Zymoseptoria tritici = assay: Leaf blotch of wheat (SEPTTR) disease control on wheat seedlings; format: in vivo; set-up: key to SEPTTR 1DP, HV activity at 100 ppm (% control rating) / SEPTTR 3DC, HV activity at 100 ppm (% control rating) / SEPTTR disease control, 1DP / SEPTTR disease control, 3DC / SEPTTR 1DP disease control rating, HV activity / SEPTTR 3DC disease control rating, HV activity / SEPTTR 3DC, LV activity at 125.1 g/H (% Control rating) / SEPTTR 1DP, LV activity at 125.1 g/H (% Control rating) / SEPTTR 1DP disease control rating, LV activity at 125.1 g/H / SEPTTR 3DC disease control rating, LV activity at 125.1 g/H / SEPTTR 3DC disease control rating, HV activity at 100 ppm / SEPTTR 1DP disease control rating, HV activity at 100 ppm / HV activity at 100 ppm SEPTTR 3DC (disease control rating) / HV activity at 100 ppm SEPTTR 1DP (disease control rating) / LV activity at 125.1 g/H SEPTTR 1DP (disease control rating) / LV activity at 125.1 g/H SEPTTR 3DC (disease control rating): A: > 80; B: ≤ 80; C: Not Tested; D: No Activity Observed in the Reported Assay; details: for SEPTTR 1DP disease control rating, HV activity at 100 ppm / SEPTTR 3DC disease control rating, HV activity at 100 ppm: high volume application; for SEPTTR 1DP disease control rating, HV activity / SEPTTR 3DC disease control rating, HV activity: HV application at 100 ppm; for SEPTTR 1DP disease control rating, HV activity / LV activity at 125.1 g/H SEPTTR 1DP (disease control rating) / SEPTTR 1DP, LV activity at 125.1 g/H (% Control rating): 1 Day Protectant; for SEPTTR 1DP disease control rating, HV activity / SEPTTR 3DC disease control rating, HV activity / LV activity at 125.1 g/H SEPTTR 1DP (disease control rating) / LV activity at 125.1 g/H SEPTTR 3DC (disease control rating): wheat leaf blotch; for SEPTTR 3DC disease control rating, HV activity / LV activity at 125.1 g/H SEPTTR 3DC (disease control rating) / SEPTTR 3DC, LV activity at 125.1 g/H (% Control rating): 3 Day Curative
Puccinia triticina = assay: Wheat brown rust (PUCCRT) disease control on wheat seedlings; format: in vivo; details: for PUCCRT 1DP disease control rating, HV activity at 100 ppm / PUCCRT 3DC disease control rating, HV activity at 100 ppm: high volume application; for PUCCRT 1DP disease control rating, HV activity / PUCCRT 3DC disease control rating, HV activity: HV application at 100 ppm; for PUCCRT 1DP disease control rating, HV activity / LV activity at 125.1 g/H PUCCRT 1DP (disease control rating) / PUCCRT 1DP, LV activity at 125.1 g/H (% Control rating): 1 Day Protectant; for PUCCRT 1DP disease control rating, HV activity / PUCCRT 3DC disease control rating, HV activity / LV activity at 125.1 g/H PUCCRT 1DP (disease control rating) / LV activity at 125.1 g/H PUCCRT 3DC (disease control rating): wheat brown rust; for PUCCRT 3DC disease control rating, HV activity / LV activity at 125.1 g/H PUCCRT 3DC (disease control rating) / PUCCRT 3DC, LV activity at 125.1 g/H (% Control rating): 3 Day Curative
[1] = low volume application, 125.1 g/H
[2] = low volume application, 125.1 g/H, 1 day protectant
[3] = low volume application, 125.1 g/H, 3 day curative

C=CC[C@@H](Oc1ccc(C(F)(F)F)cc1)[C@H](C)OC(=O)[C@H](C)NC(=O)c1nccc(OC)c1O [Cmpd 1020]
SEPTTR 1DP disease control rating, HV activity at 100 ppm (Zymoseptoria tritici; 1 day protectant): B (≤ 80) | SEPTTR 3DC disease control rating, HV activity at 100 ppm (Zymoseptoria tritici; 3 day curative): B (≤ 80) | PUCCRT 1DP disease control rating, HV activity at 100 ppm (Puccinia triticina; 1 day protectant): A (> 80) | PUCCRT 3DC disease control rating, HV activity at 100 ppm (Puccinia triticina; 3 day curative): A (> 80)

CCCOC(CC)C(Oc1ccccc1)C(C)OC(=O)C(NC(=O)c1nccc(OC)c1OCOC(C)=O)C(C)CC (centres unmarked) [Cmpd 449]
SEPTTR 1DP disease control rating, HV activity (Zymoseptoria tritici): A (> 80) | SEPTTR 3DC disease control rating, HV activity (Zymoseptoria tritici): B (≤ 80) | PUCCRT 1DP disease control rating, HV activity (Puccinia triticina): A (> 80) | PUCCRT 3DC disease control rating, HV activity (Puccinia triticina): A (> 80)

COc1ccnc(C(=O)N[C@@H](C)C(=O)O[C@@H](C)[C@@H](CC(C)C)OCC(C)C)c1OC(C)=O [Cmpd 1111]
LV activity at 125.1 g/H SEPTTR 1DP (disease control rating) (Zymoseptoria tritici; [1]): B (≤ 80) | LV activity at 125.1 g/H SEPTTR 3DC (disease control rating) (Zymoseptoria tritici; [1]): A (> 80) | LV activity at 125.1 g/H PUCCRT 1DP (disease control rating) (Puccinia triticina; [1]): A (> 80) | LV activity at 125.1 g/H PUCCRT 3DC (disease control rating) (Puccinia triticina; [1]): A (> 80)

CCCO[C@@H](c1ccccc1)[C@H](C)OC(=O)[C@H](C)NC(=O)c1nccc(OC)c1OC(C)=O [Cmpd 883]
SEPTTR 1DP disease control rating, LV activity at 125.1 g/H (Zymoseptoria tritici; [2]): B (≤ 80) | SEPTTR 3DC disease control rating, LV activity at 125.1 g/H (Zymoseptoria tritici; [3]): A (> 80) | PUCCRT 1DP disease control rating, LV activity at 125.1 g/H (Puccinia triticina; [2]): A (> 80) | PUCCRT 3DC disease control rating, LV activity at 125.1 g/H (Puccinia triticina; [3]): A (> 80)

CCC(CC)[C@@H](OCC(C)C)[C@H](C)OC(=O)[C@H](C)NC(=O)c1nccc(OC)c1O [Cmpd 354]
SEPTTR 1DP disease control rating, HV activity (Zymoseptoria tritici): B (≤ 80) | SEPTTR 3DC disease control rating, HV activity (Zymoseptoria tritici): B (≤ 80) | PUCCRT 1DP disease control rating, HV activity (Puccinia triticina): B (≤ 80) | PUCCRT 3DC disease control rating, HV activity (Puccinia triticina): A (> 80)

COc1ccnc(C(=O)N[C@@H](C)C(=O)O[C@@H](C)[C@H](Oc2ccccc2)C2CCCC2)c1O [Cmpd 356]
SEPTTR 1DP disease control rating, HV activity (Zymoseptoria tritici): A (> 80) | SEPTTR 3DC disease control rating, HV activity (Zymoseptoria tritici): B (≤ 80) | PUCCRT 1DP disease control rating, HV activity (Puccinia triticina): A (> 80) | PUCCRT 3DC disease control rating, HV activity (Puccinia triticina): A (> 80)

COc1ccnc(C(=O)NC(C)C(=O)OC(C)COCc2ccccc2)c1OCOC(C)=O (centres unmarked) [Cmpd 520]
SEPTTR 1DP, LV activity at 125.1 g/H (% Control rating) (Zymoseptoria tritici; [1]): B (≤ 80) | SEPTTR 3DC, LV activity at 125.1 g/H (% Control rating) (Zymoseptoria tritici; [1]): D | PUCCRT 1DP, LV activity at 125.1 g/H (% Control rating) (Puccinia triticina; [1]): B (≤ 80) | PUCCRT 3DC, LV activity at 125.1 g/H (% Control rating) (Puccinia triticina; [1]): B (≤ 80)

COc1ccnc(C(=O)N[C@@H](C)C(=O)O[C@@H](C)[C@H](Oc2ccc(Cl)cc2Cl)C2CCCC2)c1OCOC(C)=O [Cmpd 551]
SEPTTR 1DP, LV activity at 125.1 g/H (% Control rating) (Zymoseptoria tritici; [1]): A (> 80) | SEPTTR 3DC, LV activity at 125.1 g/H (% Control rating) (Zymoseptoria tritici; [1]): B (≤ 80) | PUCCRT 1DP, LV activity at 125.1 g/H (% Control rating) (Puccinia triticina; [1]): A (> 80) | PUCCRT 3DC, LV activity at 125.1 g/H (% Control rating) (Puccinia triticina; [1]): B (≤ 80)

COc1ccnc(C(=O)NC(C)C(=O)OC(C)C(Oc2ccccc2)c2ccc(-c3ccccc3)cc2)c1O (centres unmarked) [Cmpd 833]
SEPTTR 1DP disease control rating, HV activity at 100 ppm (Zymoseptoria tritici; 1 day protectant): A (> 80) | SEPTTR 3DC disease control rating, HV activity at 100 ppm (Zymoseptoria tritici; 3 day curative): B (≤ 80) | PUCCRT 1DP disease control rating, HV activity at 100 ppm (Puccinia triticina; 1 day protectant): A (> 80) | PUCCRT 3DC disease control rating, HV activity at 100 ppm (Puccinia triticina; 3 day curative): B (≤ 80)

COc1ccnc(C(=O)N[C@@H](C)C(=O)O[C@@H](C)[C@@H](CC(C)C)Oc2ccc(C)cc2Cl)c1OC(C)=O [Cmpd 1115]
LV activity at 125.1 g/H SEPTTR 1DP (disease control rating) (Zymoseptoria tritici; [1]): B (≤ 80) | LV activity at 125.1 g/H SEPTTR 3DC (disease control rating) (Zymoseptoria tritici; [1]): B (≤ 80) | LV activity at 125.1 g/H PUCCRT 1DP (disease control rating) (Puccinia triticina; [1]): A (> 80) | LV activity at 125.1 g/H PUCCRT 3DC (disease control rating) (Puccinia triticina; [1]): A (> 80)

CC[C@H](Cc1ccc(OC)cc1)[C@@H](Oc1ccccc1)[C@H](C)OC(=O)[C@H](C)NC(=O)c1nccc(OC)c1OC(=O)C(C)C [Cmpd 472]
SEPTTR 1DP, LV activity at 125.1 g/H (% Control rating) (Zymoseptoria tritici; [1]): A (> 80) | SEPTTR 3DC, LV activity at 125.1 g/H (% Control rating) (Zymoseptoria tritici; [1]): A (> 80) | PUCCRT 1DP, LV activity at 125.1 g/H (% Control rating) (Puccinia triticina; [1]): A (> 80) | PUCCRT 3DC, LV activity at 125.1 g/H (% Control rating) (Puccinia triticina; [1]): B (≤ 80)
